Assay results from patent US10118930B2, “Piperidinylpyrazolopyrimidinones and their use” (BAYER PHARMA AKTIENGESELLSCHAFT, priority 2015, dated 2018).
Structures can show the parent of a compound that is named as a salt.

system: clot lysis (fibrinolysis) in diluted human citrated plasma, tPA-induced; assay: Plasma-based clot lysis assay (5%); format: biochemical; settings: human citrated platelet-poor plasma 5%, fibrinogen 3 μM, CaCl2 10 mM, tPA 0.2 nM, 37° C., OD at 405 nm
Procedure, shortened: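 Clot formation and breakdown triggered by CaCl2 (10 mM final) plus tPA (0.2 nM final) at 37° C, in 5% diluted human plasma supplemented with 3 μM fibrinogen (HEPES/NaCl/Brij buffer, pH 7). IC50 obtained from time courses relative to a blank control.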

SMILES	IC50 [nM]
NC(=S)c1cnn2c(C3CCNCC3)cc(=O)[nH]c12 [Example 287, 5-oxo-7-(piperidin-4-yl)-4,5-dihydropyrazolo[1,5-a]pyrimidine-3-carbothioamide hydrochloride]	37
O=c1cc(C2CCNCC2)n2ncc(-c3nnc(CN4CCCCC4)o3)c2[nH]1 [Example 291, 7-(piperidin-4-yl)-3-[5-(piperidin-1-ylmethyl)-1,3,4-oxadiazol-2-yl]pyrazolo[1,5-a]pyrimidin-5(4H)-one hydrochloride]	85
O=c1cc(C2CCNCC2)n2ncc(-c3nnc(C4CCCCC4)o3)c2[nH]1 [Example 293, 3-(5-cyclohexyl-1,3,4-oxadiazol-2-yl)-7-(piperidin-4-yl)pyrazolo[1,5-a]pyrimidin-5 (4H)-one hydrochloride]	31
O=c1cc(C2CCNCC2)n2ncc(-c3nnc(C4CCC4)o3)c2[nH]1 [Example 294, 3-(5-cyclobutyl-1,3,4-oxadiazol-2-yl)-7-(piperidin-4-yl)pyrazolo[1,5-a]pyrimidin-5 (4H)-one hydrochloride]	37
COCCc1noc(-c2c(C)nn3c(C4CCNCC4)cc(=O)[nH]c23)n1 [Example 297, 3-[3-(2-methoxyethyl)-1,2,4-oxadiazol-5-yl]-2-methyl-7-(piperidin-4-yl)pyrazolo[1,5-a]pyrimidin-5(4H)-one hydrochloride]	27
CCc1noc(-c2c(C)nn3c(C4CCNCC4)cc(=O)[nH]c23)n1 [Example 300, 3-(3-ethyl-1,2,4-oxadiazol-5-yl)-2-methyl-7-(piperidin-4-yl)pyrazolo[1,5-a]pyrimidin-5(4H)-one hydrochloride]	16
Cc1nn2c(C3CCNCC3)cc(=O)[nH]c2c1-c1nc(CCOC(C)(C)C)no1 [Example 302, 3-[3-(2-tert-butoxyethyl)-1,2,4-oxadiazol-5-yl]-2-methyl-7-(piperidin-4-yl)pyrazolo[1,5-a]pyrimidin-5(4H)-one hydrochloride]	6
CC(C)(C)CC1CC(c2cc(=O)[nH]c3c(-c4nc(C(C)(C)C)no4)cnn23)CCN1 (centres unmarked) [Example 303, 3-(3-tert-butyl-1,2,4-oxadiazol-5-yl)-7-[2-(2,2-dimethylpropyl)piperidin-4-yl]pyrazolo[1,5-a]pyrimidin-5(4H)-one hydrochloride]	38
CC(C)CCc1csc(-c2cnn3c(C4CCNCC4)cc(=O)[nH]c23)n1 [Example 304, 3-[4-(3-methylbutyl)-1,3-thiazol-2-yl]-7-(piperidin-4-yl)pyrazolo[1,5-a]pyrimidin-5 (4H)-one hydrochloride]	24
Cc1ccc(-c2noc(-c3c(C)nn4c(C5CCNCC5)cc(=O)[nH]c34)n2)cc1 [Example 306, 2-methyl-3-[3-(4-methylphenyl)-1,2,4-oxadiazol-5-yl]-7-(piperidin-4-yl)pyrazolo[1,5-a]pyrimidin-5(4H)-one hydrochloride]	11
CCc1csc(-c2cnn3c(C4CCNCC4)cc(=O)[nH]c23)n1 [Example 308, 3-(4-ethyl-1,3-thiazol-2-yl)-7-(piperidin-4-yl)pyrazolo[1,5-a]pyrimidin-5(4H)-one hydrochloride]	11
O=c1cc(C2CCNCC2)n2ncc(-c3nc(C4CC4)cs3)c2[nH]1 [Example 311, 3-(4-cyclopropyl-1,3-thiazol-2-yl)-7-(piperidin-4-yl)pyrazolo[1,5-a]pyrimidin-5(4H)-one hydrochloride]	18
Cc1ccc(-c2csc(-c3cnn4c(C5CCNCC5)cc(=O)[nH]c34)n2)c(C)c1 [Example 312, 3-[4-(2,4-dimethylphenyl)-1,3-thiazol-2-yl]-7-(piperidin-4-yl)pyrazolo[1,5-a]pyrimidin-5(4H)-one hydrochloride]	22
Cc1cc(CN(C)C(=O)c2cnn3c(C4CCNCC4)cc(=O)[nH]c23)no1 [Example 316, N-methyl-N-[(5-methyl-1,2-oxazol-3-yl)methyl]-5-oxo-7-(piperidin-4-yl)-4,5-dihydropyrazolo[1,5-a]pyrimidine-3-carboxamide hydrochloride]	27
CCNC(=O)c1c(C)nn2c(C3CCNCC3)cc(=O)[nH]c12 [Example 317, N-ethyl-2-methyl-5-oxo-7-(piperidin-4-yl)-4,5-dihydropyrazolo[1,5-a]pyrimidine-3-carboxamide hydrochloride]	29
CN(Cc1cccnc1)C(=O)c1cnn2c(C3CCNCC3)cc(=O)[nH]c12 [Example 318, N-methyl-5-oxo-7-(piperidin-4-yl)-N-(pyridin-3-ylmethyl)-4,5-dihydropyrazolo[1,5-a]pyrimidine-3-carboxamide hydrochloride]	45
Cc1nn2c(C3CCNCC3)cc(=O)[nH]c2c1C(=O)N(C)C [Example 319, N,N,2-trimethyl-5-oxo-7-(piperidin-4-yl)-4,5-dihydropyrazolo[1,5-a]pyrimidine-3-carboxamide hydrochloride]	75
C[C@@H]1CCN(C(=O)c2cnn3c(C4CCNCC4)cc(=O)[nH]c23)C1 [Example 321, 3-{[(3R)-3-methylpyrrolidin-1-yl]carbonyl}-7-(piperidin-4-yl)pyrazolo[1,5-a]pyrimidin-5(4H)-one hydrochloride]	82
O=C(c1cnn2c(C3CCNCC3)cc(=O)[nH]c12)N1CC(F)(F)C1 [Example 326, 3-[(3,3-difluoroazetidin-1-yl)carbonyl]-7-(piperidin-4-yl)pyrazolo[1,5-a]pyrimidin-5 (4H)-one hydrochloride]	12
O=C(c1cnn2c(C3CCNCC3)cc(=O)[nH]c12)N1CCCCC1 [Example 327, 7-(piperidin-4-yl)-3-(piperidin-1-ylcarbonyl)pyrazolo[1,5-a]pyrimidin-5(4H)-one hydrochloride]	9
O=c1cc(C2CCNCC2)n2ncc(-c3nc(-c4ccccc4OC(F)F)cs3)c2[nH]1 [Example 337, 3-{4-[2-(difluoromethoxy)phenyl]-1,3-thiazol-2-yl}-7-(piperidin-4-yl)pyrazolo[1,5-a]pyrimidin-5(4H)-one hydrochloride]	30

Next, values leading:

IC50 [nM]	SMILES
27	O=c1cc(C2CCNCC2)n2ncc(-c3nnc(-c4cccs4)o3)c2[nH]1 [Example 288, 7-(piperidin-4-yl)-3-[5-(thiophen-2-yl)-1,3,4-oxadiazol-2-yl]pyrazolo[1,5-a]pyrimidin-5 (4H)-one hydrochloride]
27	O=c1cc(C2CCNCC2)n2ncc(-c3nnc(CC(F)(F)F)o3)c2[nH]1 [Example 289, 7-(piperidin-4-yl)-3-[5-(2,2,2-trifluoroethyl)-1,3,4-oxadiazol-2-yl]pyrazolo[1,5-a]pyrimidin-5(4H)-one hydrochloride]
26	O=c1cc(C2CCNCC2)n2ncc(-c3nnc(-c4ccccc4Cl)o3)c2[nH]1 [Example 290, 3-[5-(2-chlorophenyl)-1,3,4-oxadiazol-2-yl]-7-(piperidin-4-yl)pyrazolo[1,5-a]pyrimidin-5(4H)-one hydrochloride]
35	CCCCc1nnc(-c2cnn3c(C4CCNCC4)cc(=O)[nH]c23)o1 [Example 295, 3-(5-butyl-1,3,4-oxadiazol-2-yl)-7-(piperidin-4-yl)pyrazolo[1,5-a]pyrimidin-5(4H)-one hydrochloride]
23	Cc1nn2c(C3CCNCC3)cc(=O)[nH]c2c1-c1nc(C(C)(C)C)no1 [Example 296, 3-(3-tert-butyl-1,2,4-oxadiazol-5-yl)-2-methyl-7-(piperidin-4-yl)pyrazolo[1,5-a]pyrimidin-5(4H)-one hydrochloride]
25	Cc1nn2c(C3CCNCC3)cc(=O)[nH]c2c1-c1nc(Cc2ccc(F)cc2)no1 [Example 299, 3-[3-(4-fluorobenzyl)-1,2,4-oxadiazol-5-yl]-2-methyl-7-(piperidin-4-yl)pyrazolo[1,5-a]pyrimidin-5(4H)-one hydrochloride]
20	COc1ccc(C2(c3nnc(-c4cnn5c(C6CCNCC6)cc(=O)[nH]c45)o3)CC2)cc1 [Example 305, 3-{5-[1-(4-methoxyphenyl)cyclopropyl]-1,3,4-oxadiazol-2-yl}-7-(piperidin-4-yl)pyrazolo[1,5-a]pyrimidin-5(4H)-one hydrochloride]
41	Cc1ccc(-c2csc(-c3cnn4c(C5CCNCC5)cc(=O)[nH]c34)n2)cc1 [Example 309, 3-[4-(4-methylphenyl)-1,3-thiazol-2-yl]-7-(piperidin-4-yl)pyrazolo[1,5-a]pyrimidin-5(4H)-one hydrochloride]
36	O=C(c1cnn2c(C3CCNCC3)cc(=O)[nH]c12)N1CCCC1 [Example 322, 7-(piperidin-4-yl)-3-(pyrrolidin-1-ylcarbonyl)pyrazolo[1,5-a]pyrimidin-5(4H)-one hydrochloride]
460	Cc1nn2c(C3CCNCC3)cc(=O)[nH]c2c1C(=O)O [Example 323, 2-methyl-5-oxo-7-(piperidin-4-yl)-4,5-dihydropyrazolo[1,5-a]pyrimidine-3-carboxylic acid hydrochloride]
150	CC1(C)CCN(Cc2cnn3c(C4CCNCC4)cc(=O)[nH]c23)C1 [Example 324, 3-[(3,3-dimethylpyrrolidin-1-yl)methyl]-7-(piperidin-4-yl)pyrazolo[1,5-a]pyrimidin-5(4H)-one hydrochloride]
110	CC1(C)CN(Cc2cnn3c(C4CCNCC4)cc(=O)[nH]c23)CCO1 [Example 330, 3-[(2,2-dimethylmorpholin-4-yl)methyl]-7-(piperidin-4-yl)pyrazolo[1,5-a]pyrimidin-5(4H)-one hydrochloride]
26	CC(C)(C)c1cnc(-c2cnn3c(C4CCNCC4)cc(=O)[nH]c23)o1 [Example 332, 3-(5-tert-butyl-1,3-oxazol-2-yl)-7-(piperidin-4-yl)pyrazolo[1,5-a]pyrimidin-5 (4H)-one hydrochloride]
9	O=c1cc(C2CCNCC2)n2ncc(-c3nc(C4CCCCC4)cs3)c2[nH]1 [Example 335, 3-(4-cyclohexyl-1,3-thiazol-2-yl)-7-(piperidin-4-yl)pyrazolo[1,5-a]pyrimidin-5(4H)-one hydrochloride]
